Broadly, the IC50 is the concentration needed to halve the response being measured.

The values that follow come from patent US12662489B2 (Sitryx Therapeutics Limited, priority 2023, dated 2026).

The target in experiment [1] is T1, MTHFD2 recombinant human enzyme (Homo sapiens, UniProt P13995).
T1 sequence (P13995 36-350): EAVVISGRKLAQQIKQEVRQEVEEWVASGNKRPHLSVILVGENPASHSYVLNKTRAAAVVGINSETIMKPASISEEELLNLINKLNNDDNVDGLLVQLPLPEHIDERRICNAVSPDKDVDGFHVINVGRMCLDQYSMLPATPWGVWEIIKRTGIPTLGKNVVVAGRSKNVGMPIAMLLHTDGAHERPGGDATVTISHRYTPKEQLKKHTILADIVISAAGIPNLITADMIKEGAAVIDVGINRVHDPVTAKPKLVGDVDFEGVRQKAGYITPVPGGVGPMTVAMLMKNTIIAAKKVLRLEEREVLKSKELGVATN
Put plainly: MTHFD2 inhibition assay (NAD(P)H-Glo luminescence). The settings on record: for MTHFD1/MTHFD2 IC50 ratio: selectivity of MTHFD2 inhibition over MTHFD1, band.

Experiment [2] addresses T2, MTHFD1 recombinant human enzyme (Homo sapiens, UniProt P11586).
T2 sequence (P11586 2-291 limits assumed): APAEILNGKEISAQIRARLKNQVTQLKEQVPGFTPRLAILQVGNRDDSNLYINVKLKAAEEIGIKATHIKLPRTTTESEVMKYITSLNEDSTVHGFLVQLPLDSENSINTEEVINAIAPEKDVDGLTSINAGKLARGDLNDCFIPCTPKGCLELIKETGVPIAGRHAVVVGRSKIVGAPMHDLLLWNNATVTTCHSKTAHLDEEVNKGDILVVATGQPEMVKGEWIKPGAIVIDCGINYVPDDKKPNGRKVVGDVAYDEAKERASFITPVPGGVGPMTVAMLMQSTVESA
Put plainly: MTHFD1 inhibition assay (NAD(P)H-Glo luminescence). The settings on record: MTHFD1 IC50, recombinant human enzyme 200 nM, NADP, band.

Consider `COC[C@H]1CN(c2cc(C)c3c4c(c(=O)oc3c2C)CN(C(=O)c2ccc(C(=O)NS(=O)(=O)N3CCCC3)c(N3CCC[C@H]3C)c2)CC4)CCN1C` [Example 124, 4-(8-((R)-3-(methoxymethyl)-4-methylpiperazin-1-yl)-7,10-dimethyl-5-oxo-1,3,4,5-tetrahydro-2H-chromeno[3,4-c]pyridine-3-carbonyl)-2-((R)-2-methylpyrrolidin-1-yl)-N-(pyrrolidin-1-ylsulfonyl)benzamide], for which, in experiment [1], the half-maximal inhibitory concentration (IC50) is 0.1 to 1 µM and the “MTHFD1/MTHFD2 IC50 ratio” value is given as “F (<3)”. Also, the half-maximal inhibitory concentration (IC50) in experiment [2] was 0.1 to 1 µM.

As for `COC[C@H]1CN(c2cc(C)c3c4c(c(=O)oc3c2C)CN(C(=O)c2ccc(C(=O)NS(=O)(=O)C3(C)CC3)c(N3CCC[C@@H]3C)c2)CC4)CCN1C` [Example 125, 4-(8-((R)-3-(methoxymethyl)-4-methylpiperazin-1-yl)-7,10-dimethyl-5-oxo-1,3,4,5-tetrahydro-2H-chromeno[3,4-c]pyridine-3-carbonyl)-N-((1-methylcyclopropyl)sulfonyl)-2-((S)-2-methylpyrrolidin-1-yl)benzamide], the half-maximal inhibitory concentration (IC50) in experiment [1] is 0.01 to 0.1 µM; in experiment [2], 0.001 to 0.01 µM. The “MTHFD1/MTHFD2 IC50 ratio” value in experiment [1] is reported as “F (<3)”.

For the compound `COC[C@H]1CN(c2cc(C)c3c4c(c(=O)oc3c2C)CN(C(=O)c2ccc(C(=O)NS(=O)(=O)N3CCCC3)c(N3CC5CC5C3)c2)CC4)CCN1C` (stereo partly drawn) [Example 126, 2-(3-azabicyclo[3.1.0]hexan-3-yl)-4-(8-((R)-3-(methoxymethyl)-4-methylpiperazin-1-yl)-7,10-dimethyl-5-oxo-1,3,4,5-tetrahydro-2H-chromeno[3,4-c]pyridine-3-carbonyl)-N-(pyrrolidin-1-ylsulfonyl)benzamide], in experiment [1], the IC50 lay within 0.01 to 0.1 µM and the “MTHFD1/MTHFD2 IC50 ratio” value is “F (<3)”. In experiment [2], the IC50 fell in the range of 0.01 to 0.1 µM.

As to `COC[C@H]1CN(c2cc(C)c3c4c(c(=O)oc3c2C)CN(C(=O)c2cc(OC3CCCC3)c(C(=O)NS(=O)(=O)N(C)C)c(N3CCCC3)c2)CC4)CCN1C` [Example 127, (R)-2-(cyclopentyloxy)-N-(N,N-dimethylsulfamoyl)-4-(8-(3-(methoxymethyl)-4-methylpiperazin-1-yl)-7,10-dimethyl-5-oxo-1,3,4,5-tetrahydro-2H-chromeno[3,4-c]pyridine-3-carbonyl)-6-(pyrrolidin-1-yl)benzamide], in experiment [1], the IC50 was in the range of 0.01 to 0.1 µM and the “MTHFD1/MTHFD2 IC50 ratio” value is “H (>9.0 to 30)”. In addition, in experiment [2], the IC50 was in the range of 0.1 to 1 µM.

In the case of `COC[C@@H]1CN(c2cc(C)c3c4c(c(=O)oc3c2C)CN(C(=O)c2ccc(C(=O)NS(=O)(=O)N3CCCC3)c(OC3CCC3)c2)CC4)CCN1C` [Example 131, (S)-2-cyclobutoxy-4-(8-(3-(methoxymethyl)-4-methylpiperazin-1-yl)-7,10-dimethyl-5-oxo-1,3,4,5-tetrahydro-2H-chromeno[3,4-c]pyridine-3-carbonyl)-N-(pyrrolidin-1-ylsulfonyl)benzamide], in experiment [1], the IC50 lay in the range of 0.01 to 0.1 µM and the “MTHFD1/MTHFD2 IC50 ratio” value is reported as “G (^ 3 to 9.0)”. Further, the half-maximal inhibitory concentration (IC50) in experiment [2] was in the range of 0.1 to 1 µM.

For the compound `COC[C@H]1CN(c2cc(C)c3c4c(c(=O)oc3c2C)CN(C(=O)c2cc(OC3CCC3)c(C(=O)NS(=O)(=O)N3CCCC3)c(C(F)(F)F)c2)CC4)CCN1C` [Example 132, (R)-2-cyclobutoxy-4-(8-(3-(methoxymethyl)-4-methylpiperazin-1-yl)-7,10-dimethyl-5-oxo-1,3,4,5-tetrahydro-2H-chromeno[3,4-c]pyridine-3-carbonyl)-N-(pyrrolidin-1-ylsulfonyl)-6-(trifluoromethyl)benzamide], the IC50 lay within 0.01 to 0.1 µM in experiment [1] and 0.1 to 1 µM in experiment [2]. Also, the “MTHFD1/MTHFD2 IC50 ratio” value in experiment [1] is “H (>9.0 to 30)”.

As for `COC[C@H]1CN(c2ccc3c4c(c(=O)oc3c2C)CN(C(=O)c2cc(OC3CCC3)c(C(=O)NS(=O)(=O)N3CCCC3)c(C(F)(F)F)c2)CC4)CCN1C` [Example 133, (R)-2-cyclobutoxy-4-(8-(3-(methoxymethyl)-4-methylpiperazin-1-yl)-7-methyl-5-oxo-1,3,4,5-tetrahydro-2H-chromeno[3,4-c]pyridine-3-carbonyl)-N-(pyrrolidin-1-ylsulfonyl)-6-(trifluoromethyl)benzamide], in experiment [1], the concentration for half-maximal inhibition (IC50) lay in the range of 0.1 to 1 µM and the “MTHFD1/MTHFD2 IC50 ratio” value was “G (^ 3 to 9.0)”. Also, in experiment [2], the concentration for half-maximal inhibition (IC50) is 0.1 to 1 µM.

Regarding `COC[C@H]1CN(c2cc(C)c3c4c(c(=O)oc3c2C)CN(C(=O)c2ccc(C(=O)NS(=O)(=O)N(C)C)c(OC)c2F)CC4)CCN1C` [Example 134, (R)-N-(N,N-dimethylsulfamoyl)-3-fluoro-2-methoxy-4-(8-(3-(methoxymethyl)-4-methylpiperazin-1-yl)-7,10-dimethyl-5-oxo-1,3,4,5-tetrahydro-2H-chromeno[3,4-c]pyridine-3-carbonyl)benzamide], in experiment [1], the IC50 fell in the range of 0.01 to 0.1 µM and the “MTHFD1/MTHFD2 IC50 ratio” value is listed as “G (^ 3 to 9.0)”. Moreover, the IC50 in experiment [2] was in the range of 0.01 to 0.1 µM.

For `COC[C@H]1CN(c2ccc3c4c(c(=O)oc3c2C)CN(C(=O)c2ccc(C(=O)NS(=O)(=O)C3(C)CC3)c(N(C)C)c2F)CC4)CCN1C` [Example 137, (R)-2-(dimethylamino)-3-fluoro-4-(8-(3-(methoxymethyl)-4-methylpiperazin-1-yl)-7-methyl-5-oxo-1,3,4,5-tetrahydro-2H-chromeno[3,4-c]pyridine-3-carbonyl)-N-((1-methylcyclopropyl)sulfonyl)benzamide], in experiment [1], the IC50 is 0.01 to 0.1 µM and the “MTHFD1/MTHFD2 IC50 ratio” value is reported as “G (^ 3 to 9.0)”. The IC50 in experiment [2] was 0.1 to 1 µM.

Regarding `COC[C@H]1CN(c2cc(C)c3c4c(c(=O)oc3c2C)CN(C(=O)c2ccc(C(=O)NS(=O)(=O)N3CCCC3)c(N(C)C)c2F)CC4)CCN1C` [Example 138, (R)-2-(dimethylamino)-3-fluoro-4-(8-(3-(methoxymethyl)-4-methylpiperazin-1-yl)-7,10-dimethyl-5-oxo-1,3,4,5-tetrahydro-2H-chromeno[3,4-c]pyridine-3-carbonyl)-N-(pyrrolidin-1-ylsulfonyl)benzamide], in experiment [1], the IC50 was 0.01 to 0.1 µM and the “MTHFD1/MTHFD2 IC50 ratio” value is “H (>9.0 to 30)”. Moreover, the IC50 in experiment [2] lay within 0.1 to 1 µM.

Consider `COC[C@H]1CN(c2ccc3c4c(c(=O)oc3c2C)CN(C(=O)c2ccc(C(=O)NS(=O)(=O)N3CCCC3)c(N(C)C)c2F)CC4)CCN1C` [Example 139, (R)-2-(dimethylamino)-3-fluoro-4-(8-(3-(methoxymethyl)-4-methylpiperazin-1-yl)-7-methyl-5-oxo-1,3,4,5-tetrahydro-2H-chromeno[3,4-c]pyridine-3-carbonyl)-N-(pyrrolidin-1-ylsulfonyl)benzamide], for which, in experiment [1], the IC50 is 0.1 to 1 µM and the “MTHFD1/MTHFD2 IC50 ratio” value was “G (^ 3 to 9.0)”. The IC50 in experiment [2] is 0.1 to 1 µM.

For the compound `COC[C@H]1CN(c2ccc3c4c(c(=O)oc3c2C)CN(C(=O)c2c(C)cc(C(=O)NS(=O)(=O)N3CCCC3)c(OC3CCC3)c2F)CC4)CCN1C` [Example 140, (R)-2-cyclobutoxy-3-fluoro-4-(8-(3-(methoxymethyl)-4-methylpiperazin-1-yl)-7-methyl-5-oxo-1,3,4,5-tetrahydro-2H-chromeno[3,4-c]pyridine-3-carbonyl)-5-methyl-N-(pyrrolidin-1-ylsulfonyl) benzamide], the IC50 in experiment [1] and in experiment [2] was 0.1 to 1 µM each time. In experiment [1], the “MTHFD1/MTHFD2 IC50 ratio” value was “F (<3)”.
